Experimental data: patent US8193369B2, “Benzimidazole cannabinoid agonists” (Janssen Pharmaceutica NV, priority 2007, dated 2012)
pEC50: −log10 of the molar value.

Experiments:
[1] = CB1 related side-effects: body temperature lowering, LAD; format: in vivo
Procedure: CB1 related undesired side-effects such as lowering of body temperature, flat body posture, and mydriasis were measured for a number of compounds of the present invention and a number of compounds covered by reference WO-2006/048754.

[2] = target: T1, human CB2 (hCB2) receptor (Homo sapiens, UniProt P34972); assay: Inhibition of forskolin-activated cAMP production upon activation of human CB2 receptor (HTRF); format: cell-based; conditions: CHO-K1 cells stably transfected with hCB2; 15 μM forskolin; pEC50=-log(EC50); relative to WIN55212-2
T1 construct: expressed in transfected cells; host or cells: CHO-K1
Procedure: D. Pharmacological Examples D.1 Inhibition of cAMP in Response to Activation of the Human CB2 Receptors
Functional activity of the test compounds was assessed by measuring their potency to inhibit forskolin-activated cAMP production upon activation of human CB2 (hCB2) receptor through homogenous time resolved fluorescence (HTRF) assays.
CHO-K1 cells stably transfected with hCB2 were grown up to 80-90% confluence in T175 Falcon flasks in DMEM/NUT MIX F-12 culture medium complemented with 2% Solution A (5.10^6 IU/l penicillin G, 5 g/l streptomycin sulphate, 5.5 g/l pyruvate, 14.6 g/l L-glutamine, 1M NaOH) and 10% foetal calf serum. Before the experiments, medium was removed, cells were washed with PBS/EDTA (140 mM NaCl, 1 mM Na2-EDTA, 8 mM Na2HPO4.2H2O, 8.5 mM KH2PO4, 2.7 mM KCl, 21 mM glucose), resuspended in stimulation buffer (HBSS 1×, IBMX 1 mM, Hepes 5 mM, MgCl2 10 mM, BSA 0.1%, pH 7.4). Cells were diluted to a concentration of 10^6 cells/ml for hCB2 experiments. Assays were performed using the cAMP Dynamic HTRF kit (CIS bio international, France) according to the recommendations of the manufacturer.
For CB2, each well of a 384 flat bottom black polystyrene assay plate (Costar) was filled with 10 μl stimulation buffer containing 15 μM forskolin and either test compound (in 3% DMSO), 3% DMSO or 10 μM Win55212-2 (in 3% DMSO). Then, 20 μl of the diluted hCB2-CHO-K1 cells was added (20,000 cells/well). After 30 minutes incubation in dark at room temperature, 10 μl cAMP-XL665 and 10 μl anti-cAMP cryptate (both at a final dilution of 1/100) was added to the cells.
After equilibration of the reaction mixtures for 1 to 24 hours in dark at room temperature, fluorescence was measured at 665 nm and 620 nm using a Discovery microplate fluorescence counter (Perkin Elmer), and the signal ratio of 665 nm/620 nm was calculated. The signal ratios of the test compounds were expressed relative to the signal ratios of the DMSO control (maximal signal ratio, no inhibition of cAMP) and WIN55212-2 for hCB2, respectively (minimal signal ratio, maximal inhibition of cAMP). From the dose response curves generated for each test compound, the dose at which 50% of the maximal inhibition of cAMP level is observed (EC50, expressed in the Table as pEC50=−log (EC50) values) and the level of inhibition reached with 10 μM of the test compound compared to WIN55212-2 (for hCB2) was calculated.

T1 sequence (P34972 whole entry): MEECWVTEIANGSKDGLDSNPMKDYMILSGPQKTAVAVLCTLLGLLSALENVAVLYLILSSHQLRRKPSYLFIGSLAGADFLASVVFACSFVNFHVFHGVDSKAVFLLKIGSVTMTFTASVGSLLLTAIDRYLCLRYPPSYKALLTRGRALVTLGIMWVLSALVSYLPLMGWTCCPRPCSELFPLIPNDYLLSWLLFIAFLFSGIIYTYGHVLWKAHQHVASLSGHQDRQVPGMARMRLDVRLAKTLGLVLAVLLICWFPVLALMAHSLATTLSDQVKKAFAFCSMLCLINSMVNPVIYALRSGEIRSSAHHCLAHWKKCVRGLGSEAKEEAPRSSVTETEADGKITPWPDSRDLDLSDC

| SMILES | LAD (Lowest Acceptable Dose) at which lowering of body temperature was observed in more than half of the treated animals [1] [mg/kg] | CB2 pEC50 [2] | melting point [°C] | pEC50 [2] |
| --- | --- | --- | --- | --- |
| CCS(=O)(=O)c1ccc2c(c1)nc(C(C)(C)C)n2CC1CCN(C(C)=O)CC1 [Co. No. 1] | >40 | – | – | – |
| CC(=O)N1CCC(Cn2c(C(C)(C)C)nc3cc(S(=O)(=O)CCCC(F)(F)F)ccc32)CC1 [Co. No. 3] | >40 | – | – | – |
| CCS(=O)(=O)c1ccc2c(c1)nc(C(C)(C)C)n2CC1CCN(C=O)CC1 [Co. No. 28] | >40 | – | – | – |
| CCS(=O)(=O)c1ccc2c(c1)nc(C(C)(C)C)n2CC1CCS(=O)(=O)CC1 [Co. No. 29] | >40 | – | – | – |
| CC(=O)N1CCC(Cn2c(C(C)(C)C)nc3cc(S(=O)(=O)c4ccncc4)ccc32)CC1 [Co. No. 34] | >40 | – | – | – |
| CC(=O)N1CCC(Cn2c(C(C)(C)C)nc3cc(S(=O)(=O)C4CCCC4)ccc32)CC1 [Co. No. 35] | >40 | – | – | – |
| CCS(=O)(=O)c1ccc2c(c1)nc(CC(C)(C)C)n2CC1CCN(C(C)=O)CC1 [Co. No. 46] | >40 | – | – | – |
| CC(C)(C)c1nc2cc(S(=O)(=O)CCCC(F)(F)F)ccc2n1CC1CCOCC1 [Co. No. B, reference compound] | 10 | – | – | – |
| CC(C)(C)c1nc2cc(S(=O)(=O)C3CCCC3)ccc2n1CC1CCOCC1 [Co. No. C, reference compound] | 5 | – | – | – |
| CC(C)(C)c1nc2cc(S(=O)(=O)c3ccncc3)ccc2n1CC1CCOCC1 [Co. No. D, reference compound] | 10 | – | – | – |
| CC(C)(C)c1nc2cc(S(=O)(=O)CCCC(F)(F)F)ccc2n1CC1CCN(C=O)CC1 [compound 5] | – | 8.62 | > 100 | – |
| CCC(=O)N1CCC(Cn2c(C(C)(C)C)nc3cc(S(=O)(=O)CCCC(F)(F)F)ccc32)CC1.Cl [compound 6] | – | 7.72 | > 100 | – |
| COC(=O)N1CCC(Cn2c(C(C)(C)C)nc3cc(S(=O)(=O)CCCC(F)(F)F)ccc32)CC1.Cl [compound 7] | – | 7.77 | > 100 | – |
| CC(C)(C)c1nc2cc(S(=O)(=O)CCCC(F)(F)F)ccc2n1CC1CCN(C(=O)C(F)(F)F)CC1.Cl [compound 8] | – | 7.64 | > 100 | – |
| COCC(=O)N1CCC(Cn2c(C(C)(C)C)nc3cc(S(=O)(=O)CCCC(F)(F)F)ccc32)CC1 [compound 9] | – | 5.80 | > 100 | – |
| CC(=O)N1CCC(Cn2c(C(C)(C)C)nc3cc(S(=O)(=O)CC4CC4)ccc32)CC1 [compound 24] | – | – | 150 | 8.03 |
| CC(=O)N1CCC(Cn2c(C(C)(C)C)nc3cc(S(=O)(=O)Cc4ccc(F)cc4)ccc32)CC1 [compound 25] | – | – | > 100 | 7.91 |
| CC(C)(C)c1nc2cc(S(=O)(=O)CCCO)ccc2n1CC1CCN(C=O)CC1 [compound 26] | – | – | > 100 | 8.05 |
| COCCS(=O)(=O)c1ccc2c(c1)nc(C(C)(C)C)n2CC1CCN(C=O)CC1 [compound 27] | – | – | > 100 | 7.21 |
| CCS(=O)(=O)c1ccc2c(c1)nc(C(C)(C)C)n2CC1CCN(C=O)CC1 [compound 28] | – | – | 188 to 190 | 7.63 |
| CCS(=O)(=O)c1ccc2c(c1)nc(C(C)(C)C)n2CC1CCS(=O)(=O)CC1 [compound 29] | – | – | 194 | 7.56 |
| CC(C)(C)c1nc2cc(S(=O)(=O)CC3CC3)ccc2n1CC1CCS(=O)(=O)CC1 [compound 31] | – | – | 234 | 8.07 |
| CC(=O)N1CCC(Cn2c(C(C)(C)C)nc3cc(S(=O)(=O)c4ccncc4)ccc32)CC1 [compound 34] | – | – | 179 | 8.41 |
| CC(C)(C)c1nc2cc(S(=O)(=O)CC3CC3)ccc2n1CC1CCN(C=O)CC1 [compound 36] | – | 8.66 | 186 | – |

| SMILES | LAD (Lowest Acceptable Dose) at which lowering of body temperature was observed in more than half of the treated animals [1] [mg/kg] | CB2 pEC50 [2] | melting point [°C] | pEC50 [2] |
| --- | --- | --- | --- | --- |
| CC(=O)N1CCC(Cn2c(C(C)(C)C)nc3cc(S(=O)(=O)c4nccs4)ccc32)CC1 [compound 40] | – | – | 191 | 8.23 |
| CC(=O)N1CCC(Cn2c(C(C)(C)C)nc3cc(S(=O)(=O)CC4CCC4)ccc32)CC1 [compound 43] | – | – | 155 | 8.06 |
| CCS(=O)(=O)c1ccc2c(c1)nc(CC(C)(C)C)n2CC1CCN(C(C)=O)CC1 [compound 46] | – | – | 152 to 155 | 7.27 |
| CCS(=O)(=O)c1ccc2c(c1)nc(CC(C)(C)C)n2CC1CCN(C=O)CC1 [compound 48] | – | – | 166 to 168 | 7.16 |
| CC(C)(C)c1nc2cc(S(=O)(=O)c3nccs3)ccc2n1CC1CCN(C=O)CC1 [compound 49] | – | – | 190 | 8.13 |
| CC(=O)N1CCC(Cn2c(C(C)(C)C)nc3cc(S(=O)(=O)c4ccccn4)ccc32)CC1 [compound 53] | – | – | 205 | 8.53 |
| CC(=O)N1CCC(Cn2c(C(C)(C)C)nc3cc(S(=O)(=O)c4ccc(F)cc4)ccc32)CC1 [compound 59] | – | – | 186 | 8.56 |
| CC(=O)N1CCC(Cn2c(C(C)(C)C)nc3cc(S(=O)(=O)c4c(Cl)cccc4Cl)ccc32)CC1 [compound 60] | – | – | 224 | 8.46 |
| CCCC(CCC)S(=O)(=O)c1ccc2c(c1)nc(C(C)(C)C)n2CC1CCN(C(C)=O)CC1 [compound 67] | – | – | 132 | 8.56 |
| CC(=O)N1CCC(Cn2c(C(C)(C)C)nc3cc(S(=O)(=O)c4cccs4)ccc32)CC1 [compound 68] | – | – | 187 | 8.53 |
| CC(=O)N1CCC(Cn2c(C(C)(C)C)nc3cc(S(=O)(=O)c4ccccc4Cl)ccc32)CC1 [compound 71] | – | – | 218 | 8.13 |
| COc1cccc(S(=O)(=O)c2ccc3c(c2)nc(C(C)(C)C)n3CC2CCN(C(C)=O)CC2)c1 [compound 82] | – | – | 164 | 8.66 |
| CC(=O)N1CCC(Cn2c(C(C)(C)C)nc3cc(S(=O)(=O)c4cccc(C#N)c4)ccc32)CC1 [compound 84] | – | – | 191 | 8.48 |
| CC(=O)N1CCC(Cn2c(C(C)(C)C)nc3cc(S(=O)(=O)c4ccc(C(F)(F)F)cc4)ccc32)CC1 [compound 88] | – | – | 189 | 9.27 |
| CC(=O)N1CCC(Cn2c(C(C)(C)C)nc3cc(S(=O)(=O)c4cccc(Cl)c4)ccc32)CC1 [compound 90] | – | – | 192 | 9.13 |
| COc1cccc(S(=O)(=O)c2ccc3c(c2)nc(C(C)(C)C)n3CC2CCN(C(C)=O)CC2)c1OC [compound 108] | – | – | – | ~7.86 |
| COc1ccccc1S(=O)(=O)c1ccc2c(c1)nc(C(C)(C)C)n2CC1CCN(C(C)=O)CC1 [compound 109] | – | – | – | ~8.06 |
| CC(=O)N1CCC(Cn2c(C(C)(C)C)nc3cc(S(=O)(=O)c4ccc(N)c(Cl)c4)ccc32)CC1 [compound 110] | – | – | – | ~8.00 |
| CC(=O)N1CCC(Cn2c(C(C)(C)C)nc3cc(S(=O)(=O)c4c(F)cccc4F)ccc32)CC1 [compound 111] | – | – | – | ~7.78 |
| CC(=O)N1CCC(Cn2c(C(C)(C)C)nc3cc(S(=O)(=O)c4cccc(C#N)c4C)ccc32)CC1 [compound 112] | – | – | – | ~7.78 |
| CC(=O)N1CCC(Cn2c(C(C)(C)C)nc3cc(S(=O)(=O)c4ccccc4C(F)(F)F)ccc32)CC1 [compound 113] | – | – | – | ~8.60 |
| CC(=O)N1CCC(Cn2c(C(C)(C)C)nc3cc(S(=O)(=O)c4c(F)cc(F)cc4F)ccc32)CC1 [compound 114] | – | – | – | ~8.38 |
| CC(=O)N1CCC(Cn2c(C(C)(C)C)nc3cc(S(=O)(=O)c4c(C)cccc4C)ccc32)CC1 [compound 115] | – | – | – | ~8.08 |
| CC(=O)N1CCC(Cn2c(C(C)(C)C)nc3cc(S(=O)(=O)c4cccc(N5CCOCC5)c4)ccc32)CC1 [compound 116] | – | – | – | ~7.35 |
